# From EP2505659A1, “Methods for the identification of dioxygenase interacting molecules and for the purification of dioxygenase proteins” (CELLZOME AG, priority 2011, dated 2012)
# Structures can show the parent of a compound that is named as a salt. Where two headings read alike, the source gives them in different places.
# Tests used:
# Test in all cases: Bead competition binding assay, immobilized compound A, K-562, HL-60 and Jurkat nuclear lysates
# Conditions in all cases: 100 µM free compound A, read-out: Fold change versus DMSO control
# ALKBH3 = target: T1, ALKBH3 (Homo sapiens, UniProt Q96Q83)
# T1 construct: capturing and identification of dioxygenases from nuclear protein extracts; endogenous in cells
# T1 sequence (Q96Q83 1-286): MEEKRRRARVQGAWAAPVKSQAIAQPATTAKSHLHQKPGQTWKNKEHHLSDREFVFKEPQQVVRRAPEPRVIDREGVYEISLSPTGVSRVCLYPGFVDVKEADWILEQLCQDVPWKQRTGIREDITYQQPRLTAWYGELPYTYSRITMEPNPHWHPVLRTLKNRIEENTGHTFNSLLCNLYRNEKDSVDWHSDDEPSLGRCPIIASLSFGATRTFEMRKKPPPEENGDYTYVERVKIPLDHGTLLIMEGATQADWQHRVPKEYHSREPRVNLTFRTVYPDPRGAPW
# Text: (§1) K562 cells were also purchased from DSMZ (Braunschweig, Germany).
# (§2) Table 5: Peptide elution off the LC system
# LEPREL2 = target: T2, LEPREL2 (Homo sapiens, UniProt Q8IVL6)
# T2 construct: capturing and identification of dioxygenases from nuclear protein extracts; endogenous in cells
# T2 sequence (Q8IVL6 21-736): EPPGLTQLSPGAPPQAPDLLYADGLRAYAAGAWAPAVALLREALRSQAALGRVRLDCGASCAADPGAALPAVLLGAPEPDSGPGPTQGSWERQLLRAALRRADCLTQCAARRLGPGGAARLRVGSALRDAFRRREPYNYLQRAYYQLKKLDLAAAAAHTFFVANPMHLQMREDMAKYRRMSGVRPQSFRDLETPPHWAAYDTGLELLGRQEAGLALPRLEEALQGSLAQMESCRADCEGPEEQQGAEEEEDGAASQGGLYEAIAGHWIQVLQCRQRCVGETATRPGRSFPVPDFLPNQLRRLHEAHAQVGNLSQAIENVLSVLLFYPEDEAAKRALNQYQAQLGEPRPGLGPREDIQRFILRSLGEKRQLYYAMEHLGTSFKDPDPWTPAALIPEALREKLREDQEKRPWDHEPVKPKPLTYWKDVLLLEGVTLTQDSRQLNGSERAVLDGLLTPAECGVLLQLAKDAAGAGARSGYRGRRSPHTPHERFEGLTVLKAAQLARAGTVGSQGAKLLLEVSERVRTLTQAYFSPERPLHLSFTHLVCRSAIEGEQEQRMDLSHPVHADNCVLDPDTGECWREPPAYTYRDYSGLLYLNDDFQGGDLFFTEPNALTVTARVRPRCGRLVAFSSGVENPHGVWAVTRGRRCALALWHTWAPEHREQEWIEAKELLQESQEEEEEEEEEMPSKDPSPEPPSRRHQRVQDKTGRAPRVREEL
# Text: as §1, §2
# EGLN1 = target: T3, EGLN1 (Homo sapiens, UniProt Q9GZT9)
# T3 construct: endogenous in cells
# Text: as §1, §2
# OGFOD1 = target: T4, OGFOD1 (Homo sapiens, UniProt Q8N543)
# T4 construct: capturing and identification of dioxygenases from nuclear protein extracts; endogenous in cells
# Text: as §1, §2
# (§3) Seventeen different dioxygenases were identified.
# PLOD2 = target: T5, PLOD2 (Homo sapiens, UniProt O00469)
# T5 construct: capturing and identification of dioxygenases from nuclear lysates of three different cell lines; endogenous in cells; host or cells: K-562, HL-60 and Jurkat nuclear lysates
# T5 sequence (O00469 26-737): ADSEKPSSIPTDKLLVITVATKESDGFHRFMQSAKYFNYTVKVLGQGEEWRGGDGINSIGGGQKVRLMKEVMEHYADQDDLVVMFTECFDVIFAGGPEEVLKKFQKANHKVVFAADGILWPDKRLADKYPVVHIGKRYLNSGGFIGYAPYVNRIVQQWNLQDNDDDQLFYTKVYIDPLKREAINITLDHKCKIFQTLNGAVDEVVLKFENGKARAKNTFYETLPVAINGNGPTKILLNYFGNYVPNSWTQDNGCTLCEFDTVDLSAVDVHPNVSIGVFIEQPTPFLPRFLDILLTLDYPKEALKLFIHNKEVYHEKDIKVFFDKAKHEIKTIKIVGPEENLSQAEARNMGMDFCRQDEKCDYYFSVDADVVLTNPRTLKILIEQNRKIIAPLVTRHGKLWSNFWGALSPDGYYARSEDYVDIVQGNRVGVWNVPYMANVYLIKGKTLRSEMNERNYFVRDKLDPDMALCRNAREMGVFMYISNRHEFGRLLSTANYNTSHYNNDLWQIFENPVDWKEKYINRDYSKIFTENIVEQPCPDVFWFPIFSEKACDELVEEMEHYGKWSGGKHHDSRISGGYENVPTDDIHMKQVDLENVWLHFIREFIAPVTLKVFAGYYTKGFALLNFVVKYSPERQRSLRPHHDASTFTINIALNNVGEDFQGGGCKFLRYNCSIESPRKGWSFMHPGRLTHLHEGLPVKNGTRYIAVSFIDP
# Text: as §1, §2, §3
# LEPRE1 = target: T6, LEPRE1 (Homo sapiens, UniProt Q32P28)
# T6 construct: capturing and identification of dioxygenases from nuclear protein extracts; endogenous in cells
# T6 sequence (Q32P28 23-736): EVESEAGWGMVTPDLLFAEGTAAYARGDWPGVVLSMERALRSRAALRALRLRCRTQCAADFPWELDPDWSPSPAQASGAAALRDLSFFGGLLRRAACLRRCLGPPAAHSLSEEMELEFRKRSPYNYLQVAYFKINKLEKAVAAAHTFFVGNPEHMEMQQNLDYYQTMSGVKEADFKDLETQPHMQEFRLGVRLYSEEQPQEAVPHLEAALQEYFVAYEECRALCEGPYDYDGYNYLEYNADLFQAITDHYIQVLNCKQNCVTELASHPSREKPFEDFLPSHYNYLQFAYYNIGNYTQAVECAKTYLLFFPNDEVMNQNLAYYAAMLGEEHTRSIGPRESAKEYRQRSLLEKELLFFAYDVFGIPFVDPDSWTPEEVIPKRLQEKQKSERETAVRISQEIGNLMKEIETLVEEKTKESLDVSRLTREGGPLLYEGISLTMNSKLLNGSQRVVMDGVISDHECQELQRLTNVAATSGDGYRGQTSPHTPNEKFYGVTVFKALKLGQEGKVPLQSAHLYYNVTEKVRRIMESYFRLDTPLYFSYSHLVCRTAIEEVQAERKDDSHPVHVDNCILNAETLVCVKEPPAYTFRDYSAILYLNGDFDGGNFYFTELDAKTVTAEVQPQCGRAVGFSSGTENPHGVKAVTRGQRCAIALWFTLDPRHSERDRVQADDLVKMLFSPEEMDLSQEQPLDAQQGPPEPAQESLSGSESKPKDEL
# Text: as §1, §2, §3
# T4 sequence (Q8N543 whole entry): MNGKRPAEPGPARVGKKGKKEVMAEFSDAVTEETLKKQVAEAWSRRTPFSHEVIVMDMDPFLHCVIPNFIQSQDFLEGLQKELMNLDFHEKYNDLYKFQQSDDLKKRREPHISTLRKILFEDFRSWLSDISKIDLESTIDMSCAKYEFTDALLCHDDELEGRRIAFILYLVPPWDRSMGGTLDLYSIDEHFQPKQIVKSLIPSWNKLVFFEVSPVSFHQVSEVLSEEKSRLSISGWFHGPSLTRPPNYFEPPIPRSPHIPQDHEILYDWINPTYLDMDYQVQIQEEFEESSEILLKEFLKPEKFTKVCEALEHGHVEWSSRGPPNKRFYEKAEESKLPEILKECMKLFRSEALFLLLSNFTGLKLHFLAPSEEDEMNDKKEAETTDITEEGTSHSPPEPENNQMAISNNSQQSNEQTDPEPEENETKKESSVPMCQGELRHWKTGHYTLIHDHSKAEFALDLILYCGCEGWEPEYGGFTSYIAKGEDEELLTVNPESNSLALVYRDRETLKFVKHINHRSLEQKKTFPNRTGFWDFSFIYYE
# T3 sequence (Q9GZT9 whole entry): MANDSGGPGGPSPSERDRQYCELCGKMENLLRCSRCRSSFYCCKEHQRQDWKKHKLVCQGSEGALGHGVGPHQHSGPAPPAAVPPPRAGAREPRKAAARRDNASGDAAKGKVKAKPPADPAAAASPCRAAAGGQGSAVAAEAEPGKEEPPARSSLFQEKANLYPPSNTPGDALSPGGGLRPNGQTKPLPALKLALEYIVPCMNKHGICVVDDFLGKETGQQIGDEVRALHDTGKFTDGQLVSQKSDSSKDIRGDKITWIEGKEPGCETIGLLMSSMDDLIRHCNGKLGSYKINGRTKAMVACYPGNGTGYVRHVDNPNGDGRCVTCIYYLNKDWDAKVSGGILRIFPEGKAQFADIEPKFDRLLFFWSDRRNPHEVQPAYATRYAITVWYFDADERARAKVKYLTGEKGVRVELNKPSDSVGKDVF
structure (smiles),measurement,setting,value
"O=C(O)CNC(=O)C1C(=O)OC2(CCNCC2)OC1=O [compound A, 2-(2,4-dioxo-1,5-dioxa-9-azaspiro[5.5]undecane-3-carboxamido)acetic acid hydrochloride]",remaining binding at 100 µM,ALKBH3; HL-60 nuclear lysate,36%
same,remaining binding at 100 µM,ALKBH3; Jurkat nuclear lysate,32%
same,remaining binding at 100 µM,LEPREL2; Jurkat nuclear lysate,9%
same,remaining binding at 100 µM,LEPREL2; K-562 nuclear lysate,25%
same,remaining binding at 100 µM,EGLN1; HL-60 nuclear lysate,24%
same,remaining binding at 100 µM,EGLN1; Jurkat nuclear lysate,13%
same,remaining binding at 100 µM,OGFOD1; HL-60 nuclear lysate,50%
same,remaining binding at 100 µM,OGFOD1; Jurkat nuclear lysate,30%
same,remaining binding at 100 µM,OGFOD1; K-562 nuclear lysate,19%
same,remaining binding at 100 µM,PLOD2; HL-60 nuclear lysate,86%
same,remaining binding at 100 µM,PLOD2; Jurkat nuclear lysate,109%
same,remaining binding at 100 µM,PLOD2; K-562 nuclear lysate,54%
same,remaining binding at 100 µM,LEPRE1; HL-60 nuclear lysate,126%
same,remaining binding at 100 µM,LEPRE1; Jurkat nuclear lysate,90%
same,remaining binding at 100 µM,LEPRE1; K-562 nuclear lysate,100%
